Data taken from US10118947B2, “Modulation of structured polypeptide specificity” (BICYCLE THERAPEUTICS LIMITED, priority 2013, dated 2018).
Where two headings read alike, the source gives them in different places. Numbered stars: 1 amine (or outer) side, 2 acyl side, 3 side chain; on linkers, the order of the positions; unused ones are H or OH. Bridge positions count the residues as written; N and C are the ends. Square brackets hold non-standard residues; d marks the D form. Peptide text beside a SMILES is read from it. Phe(4-guanidino) = N=C(N)Nc1ccc(C[C@H](N)C(=O)O)cc1; TBMB = c1c(C[*:1])cc(C[*:3])cc1C[*:2]; NMeR = CN[C@@H](CCCNC(=N)N)C(=O)O; hArg = N=C(N)NCCCC[C@H](N)C(=O)O; Chg = N[C@H](C(=O)O)C1CCCCC1; Phg = N[C@H](C(=O)O)c1ccccc1; Tle = CC(C)(C)[C@H](N)C(=O)O; Aze = O=C(O)[C@@H]1CCN1

Key:
rat plasma Kallikrein [1] = biological target: T1, rat plasma Kallikrein (Rattus norvegicus, UniProt P14272); assay: Functional enzyme inhibition assay with fluorogenic substrate Z-PheArg-AMC, rat plasma Kallikrein; assay type: biochemical
T1 construct: polyhistidine tag (N, cleaved yes); proTEV cleavage site (pro-peptide linker) (N, cleaved yes); made in house; host or cells: HEK-293 (suspension-adapted)
T1 sequence (P14272 391-638 limits assumed): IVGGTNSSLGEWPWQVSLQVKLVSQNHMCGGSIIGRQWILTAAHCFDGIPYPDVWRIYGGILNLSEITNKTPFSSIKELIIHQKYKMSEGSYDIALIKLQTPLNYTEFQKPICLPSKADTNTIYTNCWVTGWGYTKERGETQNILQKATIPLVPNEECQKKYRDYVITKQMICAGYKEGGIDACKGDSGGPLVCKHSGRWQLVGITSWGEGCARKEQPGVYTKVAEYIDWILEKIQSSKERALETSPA
Method: Functional enzyme assays were conducted in 10 mM Tris HCl, 150 mM NaCl, 10 mM MgCl2, 1 mM CaCl2) and 1 mg/mL BSA (all Sigma UK) pH7.4 at 25° C. in solid black 96 well plates. Briefly 26.5 pM human plasma Kallikrein (purchased from Stratech, UK) or 500 pM rat plasma Kallikrein (expressed and purified in house) were incubated in the absence or presence of increasing concentrations of test peptide for 15 minutes before addition of the fluorogenic substrate Z-PheArg-AMC (Enzo Lifesciences UK) to a final assay concentration of 100 μM in 4% DMSO. Release of AMC was measured using a Pherastar FS (BMG Labtech), excitation 360 nm, emission 460 nm. The rate of the linear phase of the reaction, typically 5 to 45 minutes, was calculated in MARS data analysis software (BMG labtech). The rate was then used to calculate the IC50 and Ki in Prism (GraphPad). A four parameter inhibition non-linear regression equation was used to calculate the IC50.
Peptides were dissolved as the TFA-salts in their powder form, and stock solutions were usually prepared in water. All solutions were centrifuged and filtered ([…] syringe filters) prior absorption measurement at 280 nm. Extinction coefficients were calculated based on the Trp/Tyr content of the peptide, and that of TMB (the TMB core, when contained in a peptide, has an ε of ˜300 M^−1cm^−1). For peptides containing non-natural amino acids with suspected chromophoric properties (i.e. NorHar, 4PhenylPro, 3Pal, 4Pal, Tic, 4GuanPhe, 4,4-BPAI, 3,3-DPA, 1NAI, 2NAI, 4BenzylPro, Ind) concentrations were determined by weighing the powder and dissolving the peptide in a defined quantity of water.

[2] = Plasma stability / fragment profiling Method #2 (MALDI-TOF, 95% plasma), human plasma; assay type: in vitro ADME
Method: To obtain stability data more rapidly, peptides were also assessed in 95% plasma. Here, PBS was omitted, and a 1 mM peptide stock (in DMSO) was directly diluted into plasma (i.e. 2.5 uL stock into 47.5 uL plasma), giving a final concentration of 50 uM. 5 uL samples were taken at appropriate time points and frozen at −80 deg C. For analysis, the samples were defrosted, mixed with 15 uL of 1:1 acetonitrile:methanol, and centrifuged at 13 k for 5 min. 5 uL of the peptide-containing supernatant was aspirated and mixed with 30 mM ammonium bicarbonate in a 1:1 mixture of acetonitrile:H2O. 1 uL of this was then spotted on the MALDI plate and analysed as described above. As above, it should be noted that this is a qualitative assay serves to detect relative changes in plasma stability.
Ac-06-34-18(TMB)-NH2 Phe2 Tyr4 (referred to as wild type peptide) was subsequently subjected to human plasma, and analysed for fragments to appear over time. This was compared to the degradation profile observed in human plasma using the NMe-Arg5 derivative of 06-34-18 (FIGS. 18a and 18b). Fragmentation was determined according to Method #2.

human plasma Kallikrein = biological target: T2, human plasma Kallikrein (Homo sapiens, UniProt P03952); assay: Functional enzyme inhibition assay with fluorogenic substrate Z-PheArg-AMC, human plasma Kallikrein; assay type: biochemical
T2 construct: purchased Stratech, UK
T2 sequence (P03952 20-638): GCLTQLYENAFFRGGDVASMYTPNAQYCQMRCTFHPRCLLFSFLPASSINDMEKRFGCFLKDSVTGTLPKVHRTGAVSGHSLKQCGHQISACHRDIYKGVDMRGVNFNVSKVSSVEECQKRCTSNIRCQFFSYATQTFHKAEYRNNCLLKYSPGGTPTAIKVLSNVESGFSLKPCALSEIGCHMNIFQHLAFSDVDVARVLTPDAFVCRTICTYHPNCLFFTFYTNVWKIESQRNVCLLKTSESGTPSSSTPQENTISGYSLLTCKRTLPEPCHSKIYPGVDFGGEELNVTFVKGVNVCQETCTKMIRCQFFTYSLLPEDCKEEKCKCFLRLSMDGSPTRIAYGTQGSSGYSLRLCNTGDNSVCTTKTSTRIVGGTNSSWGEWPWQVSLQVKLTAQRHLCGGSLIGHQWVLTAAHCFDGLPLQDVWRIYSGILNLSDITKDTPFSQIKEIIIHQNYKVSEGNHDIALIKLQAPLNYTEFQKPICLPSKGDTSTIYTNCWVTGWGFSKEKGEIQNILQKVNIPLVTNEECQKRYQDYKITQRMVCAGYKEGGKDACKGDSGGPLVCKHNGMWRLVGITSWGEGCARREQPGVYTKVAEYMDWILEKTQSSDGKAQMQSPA
Procedure, shortened: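 Rates of AMC release (excitation 360 nm, emission 460 nm) from 100 μM final Z-PheArg-AMC, 4% DMSO, were taken over the linear phase, typically 5 to 45 minutes. IC50 from four-parameter non-linear regression; Ki also derived.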

rat plasma Kallikrein [3] = biological target: T1, rat plasma Kallikrein; conditions: Table 1; read-out: Ki (nM) (rat kallikrein); cited from earlier work
[4] = Table 26a, loop2 stability enhanced candidates
[5] = Table 24a, residue 6 modification in the context of Ac-(06-34-18) Phe2 Tyr4, read-out: Ki (nM) Ac-(06-34-18) Phe2 Tyr4
[6] = Table 26b, loop 1 and loop 2 modified derivatives
[7] = Table 26b, loop 1 and loop 2 modified derivatives, read-out: Ki (nM) (human kallikrein)

Row | Compound | Ki (rat plasma Kallikrein [1]; [4]) [nM] | Ki (rat plasma Kallikrein [1]; [6]) [nM] | Ki (human plasma Kallikrein; [7]) [nM] | other results
1 | CC(=O)N[C@H]1CSCc2cc3cc(c2)CSC[C@H](NC(=O)[C@H](CCCNC(=N)N)NC(=O)[C@H](Cc2ccc(O)cc2)NC(=O)[C@@H]2CCCN2C(=O)[C@H](Cc2ccccc2)NC(=O)[C@H](CO)NC1=O)C(=O)N[C@@H](C(C)(C)C)C(=O)N[C@@H](Cc1c[nH]cn1)C(=O)N[C@@H](CCC(N)=O)C(=O)N[C@@H](CC(=O)O)C(=O)N[C@@H](CC(C)C)C(=O)N[C@H](C(N)=O)CSC3 [Ac-(06-34-18) Phe2 Tyr4 tBuGly6] (Ac-CSFPYRC[Tle]HQDLC-NH2; linker 1-7-13 via TBMB) | 218 | – | – | degradation / fragments in human plasma (in words) ([2]; running text and figure legends): only removal of Arg5 in the first loop; Ki (human plasma Kallikrein; [5]): 3.76 nM
2 | CC(=O)N[C@H]1CSCc2cc3cc(c2)CSC[C@H](NC(=O)[C@H](CCCNC(=N)N)N(C)C(=O)[C@H](Cc2ccc(O)cc2)NC(=O)[C@@H]2CCN2C(=O)[C@H](Cc2ccccc2)NC(=O)[C@H](CO)NC1=O)C(=O)N[C@@H](CC(C)C)C(=O)N[C@@H](Cc1c[nH]cn1)C(=O)N[C@@H](CCC(N)=O)C(=O)N[C@@H](CC(=O)O)C(=O)N[C@@H](CC(C)C)C(=O)N[C@H](C(N)=O)CSC3 [Ac-(06-34-18) Phe2 Aze3Tyr4 NMeArg5] (Ac-CSF[Aze]Y[NMeR]CLHQDLC-NH2; linker 1-7-13 via TBMB) | – | – | – | Ki (rat plasma Kallikrein [3]): 31.4 nM
3 | CC(=O)N[C@H]1CSCc2cc3cc(c2)CSC[C@H](NC(=O)[C@H](CCCCNC(=N)N)NC(=O)[C@H](C)NC(=O)[C@@H]2CCN2C(=O)[C@H](Cc2c[nH]c4ccccc24)NC(=O)[C@H](CO)NC1=O)C(=O)N[C@@H](c1ccccc1)C(=O)N[C@@H](Cc1c[nH]cn1)C(=O)N[C@@H](CCC(N)=O)C(=O)N[C@@H](CC(=O)O)C(=O)N[C@@H](CC(C)C)C(=O)N[C@H](C(N)=O)CSC3 [Ac-(06-34-18) Aze3 HArg5 Phg6] (Ac-CSW[Aze]A[hArg]C[Phg]HQDLC-NH2; linker 1-7-13 via TBMB) | – | 57 | 0.52 | –
4 | CC(=O)N[C@H]1CSCc2cc3cc(c2)CSC[C@H](NC(=O)[C@H](Cc2ccc(NC(=N)N)cc2)NC(=O)[C@H](Cc2ccc(O)cc2)NC(=O)[C@@H]2CCN2C(=O)[C@H](Cc2ccccc2)NC(=O)[C@H](CO)NC1=O)C(=O)N[C@@H](CC(C)C)C(=O)N[C@@H](Cc1c[nH]cn1)C(=O)N[C@@H](CCC(N)=O)C(=O)N[C@@H](CC(=O)O)C(=O)N[C@@H](CC(C)C)C(=O)N[C@H](C(N)=O)CSC3 [Ac-(06-34-18) Phe2 Aze3Tyr4 4GuanPhe5] (Ac-CSF[Aze]Y[Phe(4-guanidino)]CLHQDLC-NH2; linker 1-7-13 via TBMB) | – | – | – | Ki (rat plasma Kallikrein [3]): 1.2 nM
5 | CC(=O)N[C@H]1CSCc2cc3cc(c2)CSC[C@H](NC(=O)[C@H](CCCNC(=N)N)NC(=O)[C@H](Cc2ccc(O)cc2)NC(=O)[C@@H]2CCCN2C(=O)[C@H](Cc2ccccc2)NC(=O)[C@H](CO)NC1=O)C(=O)N[C@@H](C1CCCCC1)C(=O)N[C@@H](Cc1c[nH]cn1)C(=O)N[C@@H](CCC(N)=O)C(=O)N[C@@H](CC(=O)O)C(=O)N[C@@H](CC(C)C)C(=O)N[C@H](C(N)=O)CSC3 [Ac-(06-34-18) Phe2 Tyr4 Chg6] (Ac-CSFPYRC[Chg]HQDLC-NH2; linker 1-7-13 via TBMB) | 9.09 | – | – | Ki (human plasma Kallikrein; [5]): 0.5 nM
6 | CC(=O)N[C@H]1CSCc2cc3cc(c2)CSC[C@H](NC(=O)[C@H](CCCNC(=N)N)NC(=O)[C@H](Cc2ccc(O)cc2)NC(=O)[C@@H]2CCCN2C(=O)[C@H](Cc2ccccc2)NC(=O)[C@H](CO)NC1=O)C(=O)N[C@@H](CC(C)C)C(=O)N[C@@H](Cc1c[nH]cn1)C(=O)N[C@@H](CCC(N)=O)C(=O)N[C@H](CC(=O)O)C(=O)N[C@@H](CC(C)C)C(=O)N[C@H](C(N)=O)CSC3 [Ac-(06-34-18) Phe2 Tyr4 D-Asp9] (Ac-CSFPYRCLHQ[dD]LC-NH2; linker 1-7-13 via TBMB) | 32 | – | – | Fragments (human plasma) ([2]; Table 3b, peptide fragments observed after incubation in human plasma): -R, -FPYR; reduction in potency/affinity compared to wildtype (human plasma Kallikrein): 9 fold; Ki (human plasma Kallikrein; Table 3b, D-amino acid scan in Loop2, read-out: Ki): 3.89 nM; F (Kivar/KiWT) (human plasma Kallikrein; Table 3b, ratio of Ki to wild type): 9; Ki (human plasma Kallikrein; read-out: Ki / affinity to human Kallikrein): 4 nM
7 | CC(=O)N[C@H]1CSCc2cc3cc(c2)CSC[C@H](NC(=O)[C@H](CCCNC(=N)N)NC(=O)[C@H](Cc2ccc(O)cc2)NC(=O)[C@@H]2CCN2C(=O)[C@H](Cc2ccccc2)NC(=O)[C@H](CO)NC1=O)C(=O)N[C@@H](C(C)(C)C)C(=O)N[C@@H](Cc1c[nH]cn1)C(=O)N[C@@H](CCC(N)=O)C(=O)N[C@@H](CC(=O)O)C(=O)N[C@@H](CC(C)C)C(=O)N[C@H](C(N)=O)CSC3 [Ac-(06-34-18) Phe2 Aze3 Tyr4 tBuGly6] (Ac-CSF[Aze]YRC[Tle]HQDLC-NH2; linker 1-7-13 via TBMB) | – | 193 | 1.91 | –
8 | CC(=O)N[C@H]1CSCc2cc3cc(c2)CSC[C@H](NC(=O)[C@H](CCCNC(=N)N)NC(=O)[C@H](Cc2ccc(O)cc2)NC(=O)[C@@H]2CCCN2C(=O)[C@H](Cc2ccccc2)NC(=O)[C@H](CO)NC1=O)C(=O)N[C@@H](c1ccccc1)C(=O)N[C@@H](Cc1c[nH]cn1)C(=O)N[C@@H](CCC(N)=O)C(=O)N[C@@H](CC(=O)O)C(=O)N[C@@H](CC(C)C)C(=O)N[C@H](C(N)=O)CSC3 [Ac-(06-34-18) Phe2 Tyr4 Phg6] (Ac-CSFPYRC[Phg]HQDLC-NH2; linker 1-7-13 via TBMB) | 7.23 | – | – | Ki (human plasma Kallikrein; [5]): 0.3 nM
9 | CC(=O)N[C@H]1CSCc2cc3cc(c2)CSC[C@H](NC(=O)[C@H](CCCCNC(=N)N)NC(=O)[C@H](Cc2ccc(O)cc2)NC(=O)[C@@H]2CCN2C(=O)[C@H](Cc2ccccc2)NC(=O)[C@H](CO)NC1=O)C(=O)N[C@@H](CC(C)C)C(=O)N[C@@H](Cc1c[nH]cn1)C(=O)N[C@@H](CCC(=O)O)C(=O)N[C@@H](CC(=O)O)C(=O)N[C@@H](CC(C)C)C(=O)N[C@H](C(N)=O)CSC3 [Ac-(06-34-18) Phe2 Aze3 Tyr4 HArg5 Glu8] (Ac-CSF[Aze]Y[hArg]CLHEDLC-NH2; linker 1-7-13 via TBMB) | – | 23 | 1.65 | –
10 | CC(=O)N[C@H]1CSCc2cc3cc(c2)CSC[C@H](NC(=O)[C@H](CCCCNC(=N)N)NC(=O)[C@H](Cc2ccc(O)cc2)NC(=O)[C@@H]2CCN2C(=O)[C@H](Cc2ccccc2)NC(=O)[C@H](CO)NC1=O)C(=O)N[C@@H](c1ccccc1)C(=O)N[C@@H](Cc1c[nH]cn1)C(=O)N[C@@H](CCC(N)=O)C(=O)N[C@@H](CC(=O)O)C(=O)N[C@@H](CC(C)C)C(=O)N[C@H](C(N)=O)CSC3 [Ac-(06-34-18) Phe2 Aze3 Tyr4 HArg5 Phg6] (Ac-CSF[Aze]Y[hArg]C[Phg]HQDLC-NH2; linker 1-7-13 via TBMB) | – | 12 | 0.32 | –
11 | CC(=O)N[C@H]1CSCc2cc3cc(c2)CSC[C@H](NC(=O)[C@H](CCCCNC(=N)N)NC(=O)[C@H](Cc2ccc(O)cc2)NC(=O)[C@@H]2CCN2C(=O)[C@H](Cc2ccccc2)NC(=O)[C@H](CO)NC1=O)C(=O)N[C@@H](C)CN[C@@H](Cc1c[nH]cn1)C(=O)N[C@@H](CCC(N)=O)C(=O)N[C@@H](CC(=O)O)C(=O)N[C@@H](CC(C)C)C(=O)N[C@H](C(N)=O)CSC3 | – | 41 | 0.44 | –
12 | CC(=O)N[C@H]1CSCc2cc3cc(c2)CSC[C@H](NC(=O)[C@H](CCCCNC(=N)N)NC(=O)[C@H](Cc2ccc(O)cc2)NC(=O)[C@@H]2CCN2C(=O)[C@H](Cc2ccccc2)NC(=O)[C@H](CO)NC1=O)C(=O)N[C@@H](CC(C)C)C(=O)N[C@@H](Cc1c[nH]cn1)C(=O)N[C@@H](CCC(N)=O)C(=O)N[C@@H](CC(=O)O)C(=O)N[C@@H](CC(C)C)C(=O)N[C@H](C(N)=O)CSC3 [Ac-(06-34-18) Phe2 Aze3 Tyr4 HomoArg5] (Ac-CSF[Aze]Y[hArg]CLHQDLC-NH2; linker 1-7-13 via TBMB) | – | – | – | Ki (rat plasma Kallikrein [3]): 3 nM
